Values quoted from earlier work, collected in patent US4199598A, “Method of treating noradrenaline dysfunction or for dopamine-β-hydroxylase inhibition” (Richter Gedeon Vegyeszeti Gyar Rt., priority 1976, dated 1980).

System: dopamine-β-hydroxylase
Details: in words, prior art; cited from earlier work

Compound | dopamine-β-hydroxylase inhibiting effects | duration of activity
CCCCc1ccc(C(=O)O)nc1 [Fusaric acid, 5-butyl-picolinic acid] | strong dopamine-β-hydroxylase inhibiting effects | 
NNc1nncc2ccccc12 [Hydralazine, hydralazine] | possess dopamine-β-hydroxylase inhibiting effects | 
O=C(CO)c1coc(=O)c2c(O)cccc12 [Oosponol] | strong dopamine-β-hydroxylase inhibiting effects | 
CC(N)Cc1ccccc1 (centres unmarked) [amphetamine] | possess dopamine-β-hydroxylase inhibiting effects | 
NNCc1ccccc1 [benzylhydrazine] | exert dopamine-β-hydroxylase inhibiting effects | exert their activities for a short period
CCN(CC)C(=S)S [diethyl dithiocarbamate] | strong dopamine-β-hydroxylase inhibiting effects | 
Cn1cc[nH]c1=S [methimazol] | possess dopamine-β-hydroxylase inhibiting effects | 
